# According to ChEMBL document CHEMBL1201862, “PubChem BioAssay data set” (2004):
#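 Dose response: 5 concentrations. Exposure: 48 h. Format: 96-well plates. Endpoint: linear interpolation; highest concentration if not reached. The concentration for 50% growth inhibition is given as GI50.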 Calls of active or inactive are those of the source. No stated cut-off is given here; in the data, active = GI50 up to about 1.1 µM and inactive = higher.
# How the values were obtained:
# Assay in all cases: DTP human tumour cell line panel, 48 h
# [1] = tested on: NCI-H522
# [2] = tested on: LOX IMVI
# [3] = tested on: OVCAR-3
# [4] = tested on: HCT-15
# [5] = tested on: TK-10
# [6] = tested on: SNB-19
# [7] = tested on: NCI-H23
# [8] = tested on: Malme-3M
# [9] = tested on: UACC-62
# [10] = tested on: KM12
# [11] = tested on: EKVX
# [12] = tested on: SK-MEL-28
# [13] = tested on: OVCAR-8
# [14] = tested on: SF-539
# [15] = tested on: NCI-H460
SMILES,GI50 [1],GI50 [2],GI50 [3],GI50 [4] [µM],GI50 [5],GI50 [6],GI50 [7],GI50 [8],GI50 [9],GI50 [10],GI50 [11],GI50 [12],GI50 [13],GI50 [14],GI50 [15]
CCC1c2[nH]c3ccccc3c2C[C@H]2C(=O)NC(Cc3ccccc3)C(=O)N12 (stereo partly specified),22.9 µM (inactive),22.1 µM (inactive),31 µM (inactive),35,23.7 µM (inactive),34.9 µM (inactive),37.1 µM (inactive),19.7 µM (inactive),17.2 µM (inactive),24.8 µM (inactive),30.3 µM (inactive),40 µM (inactive),34.5 µM (inactive),–,–
O=C(OCCN=C1c2ccccc2CCc2ccccc21)c1cc([N+](=O)[O-])cc([N+](=O)[O-])c1,–,> 31.6 µM (inactive),23.3 µM (inactive),> 31.6,> 31.6 µM (inactive),> 31.6 µM (inactive),> 31.6 µM (inactive),> 31.6 µM (inactive),> 31.6 µM (inactive),28.1 µM (inactive),> 31.6 µM (inactive),> 31.6 µM (inactive),> 31.6 µM (inactive),> 31.6 µM (inactive),> 31.6 µM (inactive)
COc1ncnc2c1cnn2Cc1cn(COCC(O)CO)nn1 (stereo unspecified),10.8 µM (inactive),> 100 µM (inactive),> 100 µM (inactive),> 100,> 100 µM (inactive),> 100 µM (inactive),> 100 µM (inactive),–,> 100 µM (inactive),> 100 µM (inactive),> 100 µM (inactive),> 100 µM (inactive),> 100 µM (inactive),> 100 µM (inactive),–
O=CNNC(=O)Nc1cccc2ccccc12,–,–,–,> 100,> 100 µM (inactive),> 100 µM (inactive),> 100 µM (inactive),> 100 µM (inactive),> 100 µM (inactive),> 100 µM (inactive),> 100 µM (inactive),> 100 µM (inactive),> 100 µM (inactive),> 100 µM (inactive),> 100 µM (inactive)
Cc1nnc2n1-c1ccccc1-c1[nH]c3ccccc3c1C2,–,89.9 µM (inactive),76.6 µM (inactive),–,> 100 µM (inactive),> 100 µM (inactive),63.7 µM (inactive),78.9 µM (inactive),25.1 µM (inactive),94.4 µM (inactive),> 100 µM (inactive),73.5 µM (inactive),38.1 µM (inactive),> 100 µM (inactive),30.7 µM (inactive)
Nc1ncnc2ccc(Sc3ccc4ncnc(N)c4c3)cc12,–,> 100 µM (inactive),> 100 µM (inactive),> 100,> 100 µM (inactive),> 100 µM (inactive),–,> 100 µM (inactive),> 100 µM (inactive),> 100 µM (inactive),> 100 µM (inactive),> 100 µM (inactive),> 100 µM (inactive),> 100 µM (inactive),> 100 µM (inactive)
COc1c(O)cc2c3c(ccnc13)NC=C2,1.63 µM (inactive),61.1 µM (inactive),12.4 µM (inactive),> 100,> 100 µM (inactive),> 100 µM (inactive),> 100 µM (inactive),85.7 µM (inactive),> 100 µM (inactive),> 100 µM (inactive),> 100 µM (inactive),> 100 µM (inactive),> 100 µM (inactive),–,> 100 µM (inactive)
C[C@]12CC[C@@H]3c4ccc(O)cc4CC[C@H]3[C@@H]1CC[C@@H]2OC(=O)CCc1ccccc1,15.3 µM (inactive),18.2 µM (inactive),20.5 µM (inactive),14.4,18.5 µM (inactive),18.5 µM (inactive),17.7 µM (inactive),17.6 µM (inactive),13.9 µM (inactive),27.7 µM (inactive),10.8 µM (inactive),20.1 µM (inactive),22.8 µM (inactive),–,19.1 µM (inactive)
NC(=O)N/N=C1\CCCCc2ccccc21,> 10 µM (inactive),–,> 10 µM (inactive),> 10,> 10 µM (inactive),> 10 µM (inactive),> 10 µM (inactive),> 10 µM (inactive),–,> 10 µM (inactive),> 10 µM (inactive),–,> 10 µM (inactive),–,> 10 µM (inactive)
COc1c(N2CCCCC2)c2c(=O)c3ccccc3oc2c2c3ccccc3n(C)c12,–,> 100 µM (inactive),> 100 µM (inactive),> 100,> 100 µM (inactive),> 100 µM (inactive),> 100 µM (inactive),> 100 µM (inactive),> 100 µM (inactive),> 100 µM (inactive),> 100 µM (inactive),> 100 µM (inactive),> 100 µM (inactive),> 100 µM (inactive),> 100 µM (inactive)
